Measured values as given in US20240343733A1, “COMPOUNDS FOR TARGETING DEGRADATION OF IRAK4 PROTEINS” (BIOGEN MA INC., priority 2021, published 2024).

molecular target: T1, IRAK4 (Homo sapiens, UniProt Q9NWZ3); assay: IRAK4 Degradation Assay, HiBiT Method; type: cell-based; conditions: 293T cells expressing HiBiT-tagged IRAK4, 6 hours
T1 construct: 293Tcells expressing HiBiT-tagged IRAK4 were then added into 384-well plates
T1 sequence (Q9NWZ3 1-460): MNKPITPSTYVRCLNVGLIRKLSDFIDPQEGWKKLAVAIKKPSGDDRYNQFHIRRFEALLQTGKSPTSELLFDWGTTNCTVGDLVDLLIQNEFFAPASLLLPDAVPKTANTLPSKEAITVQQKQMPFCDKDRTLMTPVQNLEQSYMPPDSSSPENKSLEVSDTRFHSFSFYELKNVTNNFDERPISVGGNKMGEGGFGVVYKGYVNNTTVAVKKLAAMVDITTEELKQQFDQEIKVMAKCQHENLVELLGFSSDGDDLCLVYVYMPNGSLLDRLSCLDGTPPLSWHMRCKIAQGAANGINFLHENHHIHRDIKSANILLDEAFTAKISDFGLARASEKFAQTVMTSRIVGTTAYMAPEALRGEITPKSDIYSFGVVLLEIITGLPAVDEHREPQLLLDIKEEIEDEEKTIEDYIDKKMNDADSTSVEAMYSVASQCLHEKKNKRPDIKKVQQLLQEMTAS
In short: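 293T cells with HiBiT knocked in at the C-terminus of endogenous IRAK4, 10,000 per well, treated 6 h at 37 °C with an 11-point half-log series ([…]), in duplicate. Remaining IRAK4 read by Nano-Glo HiBiT lytic luminescence against DMSO-only and media-only controls.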

| DC50 [nM] | Structure (SMILES) |
| --- | --- |
| < 10 | CO[C@H]1CN(C[C@H]2CC[C@H](n3cc4cc(C(=O)Nc5cccn([C@H]6C[C@H]6F)c5=O)c(OC(C)C)cc4n3)CC2)CC[C@H]1c1ccc2c(N3CCC(=O)NC3=O)nn(C)c2c1 [Example 134, 2-((1R,4S)-4-(((3R,4S)-4-(3-(2,4-dioxotetrahydropyrimidin-1(2H)-yl)-1-methyl-1H-indazol-6-yl)-3-methoxypiperidin-1-yl)methyl)cyclohexyl)-N-(1-((1S,2R)-2-fluorocyclopropyl)-2-oxo-1,2-dihydropyridin-3-yl)-6-isopropoxy-2H-indazole-5-carboxamide] |
| 100 to 500 | Cc1cnc2c(NC(=O)c3cn4cc([C@H]5CC[C@H](CN6CCC(c7cc(F)c(C8CCC(=O)NC8=O)cc7F)C(F)(F)C6)CC5)nc4cc3OC(C)C)cnn2c1 (stereo partly shown) [Example 54, 2-[4-[[4-[4-(2,6-dioxo-3-piperidyl)-2,5-difluoro-phenyl]-3,3-difluoro-1-piperidyl]methyl]cyclohexyl]-7-isopropoxy-N-(6-methylpyrazolo[1,5-a]pyrimidin-3-yl)imidazo[1,2-a]pyridine-6-carboxamide] |
| 100 to 500 | CC(C)Oc1cc2nc([C@H]3CC[C@H](CN4CCC(c5cccc(NC6CCC(=O)NC6=O)c5)CC4)CC3)cn2cc1C(=O)Nc1cccc(C(F)(F)F)n1 (stereo partly shown) [Example 12, 2-[4-[[4-[3-[(2,6-dioxo-3-piperidyl)amino]phenyl]-1-piperidyl]methyl]cyclohexyl]-7-isopropoxy-N-[6-(trifluoromethyl)-2-pyridyl]imidazo[1,2-a]pyridine-6-carboxamide] |
| 100 to 500 | CC(C)Oc1cc2nc([C@H]3CC[C@H](CN4CCC(c5ccc(NC6CCC(=O)NC6=O)cc5)C(F)(F)C4)CC3)cn2cc1C(=O)Nc1cccc(C(F)F)n1 (stereo partly shown) [Example 36, N-[6-(difluoromethyl)-2-pyridyl]-2-[4-[[4-[4-[(2,6-dioxo-3-piperidyl)amino]phenyl]-3,3-difluoro-1-piperidyl]methyl]cyclohexyl]-7-isopropoxy-imidazo[1,2-a]pyridine-6-carboxamide] |
| < 10 | CC(C)Oc1cc2nn([C@H]3CC[C@H](CN4CCOC[C@@H]4Cc4ccc(OC5CCC(=O)NC5=O)cc4)CC3)cc2cc1C(=O)Nc1cccn([C@H]2C[C@H]2F)c1=O (stereo partly drawn) [Example 135, 2-((1S,4S)-4-(((3S)-3-(4-((2,6-dioxopiperidin-3-yl)oxy)benzyl)morpholino)methyl)cyclohexyl)-N-(1-((1S,2R)-2-fluorocyclopropyl)-2-oxo-1,2-dihydropyridin-3-yl)-6-isopropoxy-2H-indazole-5-carboxamide] |
| < 10 | CC(C)Oc1nc2nc([C@H]3CC[C@H](CN4CCC(c5ccc6c(c5)n(C)c(=O)n6C5CCC(=O)NC5=O)CC4)CC3)cn2cc1C(=O)Nc1cccn([C@H]2C[C@H]2F)c1=O (stereo partly shown) [Example 192] |
| 10 to 100 | CC(C)Oc1cc2nc(C3CCN(C(=O)CC4CCN(c5ncc(C6CCC(=O)NC6=O)cc5F)CC4)CC3)cn2cc1C(=O)Nc1cccn([C@H]2C[C@H]2F)c1=O (stereo partly drawn) [Example 161, 2-(1-(2-(1-(5-(2,6-dioxopiperidin-3-yl)-3-fluoropyridin-2-yl)piperidin-4-yl)acetyl)piperidin-4-yl)-N-(1-((1S,2R)-2-fluorocyclopropyl)-2-oxo-1,2-dihydropyridin-3-yl)-7-isopropoxyimidazo[1,2-a]pyridine-6-carboxamide] |
| 10 to 100 | CC(C)Oc1cc2nn(C3CCN(C(=O)OC4CCN(c5ncc(C6CCC(=O)NC6=O)cc5F)CC4)CC3)cc2cc1C(=O)Nc1cccn([C@H]2C[C@H]2F)c1=O (stereo partly drawn) [Example 156, 1-(5-(2,6-dioxopiperidin-3-yl)-3-fluoropyridin-2-yl)piperidin-4-yl 4-(5-((1-((1S,2R)-2-fluorocyclopropyl)-2-oxo-1,2-dihydropyridin-3-yl)carbamoyl)-6-isopropoxy-2H-indazol-2-yl)piperidine-1-carboxylate] |
| < 10 | CC(C)Oc1cc2nn([C@H]3CC[C@H](CN4CCC(c5cc6c(cc5F)c(N5CCC(=O)NC5=O)nn6C)CC4)CC3)cc2cc1C(=O)Nc1cccn(C2CC2)c1=O [Example 198, N-(1-cyclopropyl-2-oxo-1,2-dihydropyridin-3-yl)-2-((r,4r)-4-((4-(3-(2,4-dioxotetrahydropyrimidin-1(2H)-yl)-5-fluoro-1-methyl-1H-indazol-6-yl)piperidin-1-yl)methyl)cyclohexyl)-6-isopropoxy-2H-indazole-5-carboxamide] |
| 10 to 100 | CC(C)Oc1cc2nc(C3CCN(C(=O)CC4(O)CCN(c5c(F)cc(N[C@H]6CCC(=O)NC6=O)cc5Cl)CC4)CC3)cn2cc1C(=O)Nc1cccc(C(F)F)n1 [Example 82, 2-[1-[2-[1-[2-chloro-4-[[(3S)-2,6-dioxo-3-piperidyl]amino]-6-fluoro-phenyl]-4-hydroxy-4-piperidyl]acetyl]-4-piperidyl]-N-[6-(difluoromethyl)-2-pyridyl]-7-isopropoxy-imidazo[1,2-a]pyridine-6-carboxamide] |
| 100 to 500 | CC(C)Oc1cc2nc(C3CCN(CC(=O)N4CCC(c5ccc(NC6CCC(=O)NC6=O)cc5)CC4)CC3)cn2cc1C(=O)Nc1cccc(C(F)(F)F)c1 (stereo not shown) [Example 106, 2-[1-[2-[4-[4-[(2,6-dioxo-3-piperidyl)amino]phenyl]-1-piperidyl]-2-oxo-ethyl]-4-piperidyl]-7-isopropoxy-N-[3-(trifluoromethyl)phenyl]imidazo[1,2-a]pyridine-6-carboxamide] |
| 10 to 100 | CC(C)Oc1cc2nc(C3CCN(CC(=O)N4CCC(c5ccc(NC6CCC(=O)NC6=O)cc5)CC4)CC3)cn2cc1C(=O)Nc1ccccn1 (stereo not shown) [Example 109, 2-[1-[2-[4-[4-[(2,6-dioxo-3-piperidyl)amino]phenyl]-1-piperidyl]-2-oxo-ethyl]-4-piperidyl]-7-isopropoxy-N-(2-pyridyl)imidazo[1,2-a]pyridine-6-carboxamide] |
| 10 to 100 | CC(C)Oc1cc2nc([C@H]3CC[C@H](CN(C)C4CCN(c5cccc6c5n(C)c(=O)n6C5CCC(=O)NC5=O)CC4)CC3)cn2cc1C(=O)Nc1cccc(C(F)F)n1 (stereo partly shown) [Example 21, N-[6-(difluoromethyl)-2-pyridyl]-2-[4-[[[1-[1-(2,6-dioxo-3-piperidyl)-3-methyl-2-oxo-benzimidazol-4-yl]-4-piperidyl]-methyl-amino]methyl]cyclohexyl]-7-isopropoxy-imidazo[1,2-a]pyridine-6-carboxamide] |
| 10 to 100 | CC(C)Oc1cc2nc([C@H]3CC[C@H](CN4CCC(c5ccc(NC6CCC(=O)NC6=O)cc5)CC4)CC3)cn2cc1C(=O)Nc1cccc(C(F)F)n1 (stereo partly shown) [Example 16, N-[6-(difluoromethyl)-2-pyridyl]-2-[4-[[4-[4-[(2,6-dioxo-3-piperidyl)amino]phenyl]-1-piperidyl]methyl]cyclohexyl]-7-isopropoxy-imidazo[1,2-a]pyridine-6-carboxamide] |
| 10 to 100 | CC(C)Oc1cc2nc([C@H]3CC[C@H](CN4CCC(c5cc6c(cc5F)c(N5CCC(=O)NC5=O)nn6C)C(F)(F)C4)CC3)cn2cc1C(=O)Nc1cccn([C@H]2C[C@H]2F)c1=O (stereo partly shown) [Example 172, 2-((1r, 4S)-4-((4-(3-(2,4-dioxotetrahydropyrimidin-1 (2H)-yl)-5-fluoro-1-methyl-1H-indazol-6-yl)-3,3-difluoropiperidin-1-yl)methyl)cyclohexyl)-N-(1-((1 S, 2R)-2-fluorocyclopropyl)-2-oxo-1,2-dihydropyridin-3-yl)-7-isopropoxyimidazo[1,2-a]pyridine-6-carboxamide] |
| 10 to 100 | CC(C)Oc1cc2nc([C@H]3CC[C@H](CN(C)C4CCN(c5ccc6c(c5)n(C)c(=O)n6C5CCC(=O)NC5=O)CC4)CC3)cn2cc1C(=O)Nc1cccc(C(F)(F)F)n1 (stereo partly shown) [Example 10, 2-[4-[[[1-[1-(2,6-dioxo-3-piperidyl)-3-methyl-2-oxo-benzimidazol-5-yl]-4-piperidyl]-methyl-amino]methyl]cyclohexyl]-7-isopropoxy-N-[6-(trifluoromethyl)-2-pyridyl]imidazo[1,2-a]pyridine-6-carboxamide] |
| 100 to 500 | CC(C)Oc1cc2nc([C@H]3CC[C@H](CN4CCC(c5ccc(C6(C)CCC(=O)NC6=O)cc5)CC4)CC3)cn2cc1C(=O)Nc1cccc(C(F)F)n1 (stereo partly shown) [Example 40, N-[6-(difluoromethyl)-2-pyridyl]-7-isopropoxy-2-[4-[[4-[4-(3-methyl-2,6-dioxo-3-piperidyl)phenyl]-1-piperidyl]methyl]cyclohexyl]imidazo[1,2-a]pyridine-6-carboxamide] |
| 100 to 500 | CC(C)Oc1cc2nc(C3CCN(CC(=O)N4CCC(c5ccc(NC6CCC(=O)NC6=O)cc5)CC4)CC3)cn2cc1C(=O)Nc1ccccc1 (stereo not shown) [Example 93, 2-[1-[2-[4-[4-[(2,6-dioxo-3-piperidyl)amino]phenyl]-1-piperidyl]-2-oxo-ethyl]-4-piperidyl]-7-isopropoxy-N-phenyl-imidazo[1,2-a]pyridine-6-carboxamide] |
| < 10 | CC(C)Oc1cc2nn([C@H]3CC[C@H](CN4CCN(c5ncc(C6CCC(=O)NC6=O)cc5F)CC(O)C4)CC3)cc2cc1C(=O)Nc1cccn([C@H]2C[C@H]2F)c1=O (stereo partly drawn) [Example 119, 2-((1r,4S)-4-((4-(5-(2,6-dioxopiperidin-3-yl)-3-fluoropyridin-2-yl)-6-hydroxy-1,4-diazepan-1-yl)methyl)cyclohexyl)-N-(1-((1S,2R)-2-fluorocyclopropyl)-2-oxo-1,2-dihydropyridin-3-yl)-6-isopropoxy-2H-indazole-5-carboxamide] |
